Consider 3 molecules from patent US11000033B2, “Ketone or oxime compound, and herbicide” (NISSAN CHEMICAL CORPORATION, priority 2014, dated 2021).

Holding throughout (type): in vivo
For data set [1], the system named is beet. Briefly: Test Example 5: effect on crop by foliage application, plastic box (symbol f). The conditions noted are these: 320 g/ha, 3 weeks after application. A digest of the protocol:
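Box culture: sterile diluvial soil, seeds spot-sown, ~1.5 cm cover, raised under glass at 25–30° C.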

In data set [2] the test system is beet. Briefly: Test Example 4: effect on crop by soil treatment (symbol f). The conditions noted are these: application herbicide amount 320 g/ha. A digest of the protocol:
(§1)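 Seeds were sown in spots on sterilized diluvial soil in a plastic box and covered with about 1.5 cm of soil. Plants were then grown in a greenhouse at 25° C. to 30° C.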

Data set [3] relates to directly sowed rice plant. Briefly: Test Example 3: effect on crop by foliage application, Wagner pot (symbol b). The following applies: application herbicide amount 320 g/ha. A digest of the protocol:
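Plants are raised from seed in flooded paddy conditions: water stands 0.1–0.5 cm over alluvial soil, and the pot is kept in a greenhouse at 25–30 °C. Species sown are barnyardgrass (E. crus-galli var. crus-galli), Leptochloa chinensis, Cyperus difformis and rice.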

Data set [4] relates to Echinochloa crus-galli var. crus-galli. Briefly: Test Example 4: herbicidal effect by soil treatment (symbol H). The following applies: application herbicide amount 320 g/ha. A digest of the protocol: (§2)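 Seeds were sown in sterilized diluvial soil, covered with about 1.5 cm of soil, and the soil surface was sprayed with a water-diluted emulsion of the compound at a predetermined rate. Plants grew in a greenhouse at 25° C. to 30° C.; effects were scored visually 3 weeks after application.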

Another data set relates to Alopecurus myosuroides. Briefly: Test Example 5: herbicidal effect by foliage application, plastic box (symbol J). The following applies: 320 g/ha, 3 weeks after application. An outline of the steps:
(§3)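 Effect is rated 3 weeks after a foliar spray of water-diluted emulsion concentrate at a predetermined herbicide amount. Plants had grown 14 days in a 25° C. to 30° C. greenhouse from seed in sterilized diluvial soil.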

Data set [5] concerns Digitaria ciliaris. Briefly: Test Example 5: herbicidal effect by foliage application, plastic box (symbol F). The conditions noted are these: 320 g/ha, 3 weeks after application. An outline of the steps: as §3
In data set [6] the test system is Echinochloa oryzacola Vasing. Briefly: Test Example 2: herbicidal activity, application during weed generation in submerged conditions (symbol A). The conditions noted are these: Table 23; application herbicide amount 320 g/ha; grade 0-5 by criteria of Test Example 1. An outline of the steps:
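Steps: fill pots with alluvial soil; add water to 4 cm depth; co-sow the three weeds; grow at 25° C. to 30° C. under glass; at 1–2 leaves, dose the floodwater with diluted emulsion; rate damage visually after 3 weeks.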

The test system of another data set is rice. Briefly: Test Example 4: effect on crop by soil treatment (symbol b). The conditions noted are these: application herbicide amount 320 g/ha. A digest of the protocol:
as §1

The test system of a further data set is Veronica persica. Briefly: Test Example 5: herbicidal effect by foliage application, plastic box (symbol R). The following applies: 320 g/ha, 3 weeks after application. An outline of the steps: as §3
The test system of the next data set is Abutilon theophrasti. Briefly: Test Example 4: herbicidal effect by soil treatment (symbol M). The following applies: application herbicide amount 320 g/ha. An outline of the steps: as §2
The test system of a further data set is Cyperus difformis. Briefly: Test Example 3: herbicidal effect by foliage application, Wagner pot (symbol E). The conditions noted are these: application herbicide amount 320 g/ha. An outline of the steps: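 Post-emergence, paddy-type test: seedlings 14 d old in shallow-flooded (0.1–0.5 cm) alluvial soil, 25–30 °C greenhouse. Emulsion diluted to target rate, sprayed on leaves. Read-out: visual effect on each species at 3 weeks, per set criteria.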

The next data set concerns wheat. Briefly: Test Example 4: effect on crop by soil treatment (symbol e). The following applies: application herbicide amount 320 g/ha. An outline of the steps: as §1
Another data set deals with Galium spurium. Briefly: Test Example 5: herbicidal effect by foliage application, plastic box (symbol Q). The following applies: 320 g/ha, 3 weeks after application. An outline of the steps:
as §3

Another data set concerns Apera spica-venti. Briefly: Test Example 5: herbicidal effect by foliage application, plastic box (symbol L). The conditions noted are these: 320 g/ha, 3 weeks after application. A digest of the protocol:
as §3

Another data set relates to corn. Briefly: Test Example 4: effect on crop by soil treatment (symbol c). The conditions noted are these: application herbicide amount 320 g/ha. An outline of the steps:
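Grown at 25° C. to 30° C. in a greenhouse, the crops came from seed sown spot-wise in sterilized diluvial soil under roughly 1.5 cm of covering soil.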

In data set [7] the test system is Digitaria ciliaris. Briefly: Test Example 4: herbicidal effect by soil treatment (symbol F). The following applies: application herbicide amount 320 g/ha. A digest of the protocol: as §2
The subject of another data set is Lolium multiflorum Lam. Briefly: Test Example 4: herbicidal effect by soil treatment (symbol K). The conditions noted are these: application herbicide amount 320 g/ha. A digest of the protocol:
as §2

The next data set deals with Setaria viridis. Briefly: Test Example 5: herbicidal effect by foliage application, plastic box (symbol G). The conditions noted are these: 320 g/ha, 3 weeks after application. A digest of the protocol: as §3

In the case of `CON=C(CC1CC(O)=C(c2c(C)cc(C)cc2C)C1=O)C1CC1` (stereo not drawn) [1-046], the “f: beet, effect on crop grade” value in the data set on beet [1] is 0 (Herbicidal ratio of 5% or lower (almost no effect)). Moreover, the “f (beet) effect on crop grade” value with beet [2] is listed as 0 (Herbicidal ratio of 5% or lower (almost no effect)). For the same molecule, the “effect on crop b (directly sowed rice plant), grade 0-5” value (shortened to “effect on crop b”) in data set [3] is 5 (Herbicidal ratio of 90% or more (almost completely withered)). Further, the “H (Echinochloa crus-galli var. crus-galli) herbicidal effect grade” value in data set [4] is given as 5 (Herbicidal ratio of 90% or more (almost completely withered)). The “J: Alopecurus myosuroides, herbicidal effect grade” value (“J: Alopecurus myosuroides” below) in the data set on Alopecurus myosuroides is listed as 5 (Herbicidal ratio of 90% or more (almost completely withered)). Also, the “F: Digitaria ciliaris, herbicidal effect grade” value (shortened to “F: Digitaria ciliaris”) in the data set with Digitaria ciliaris [5] is 4 (Herbicidal ratio of 70% or higher and lower than 90%). The “Herbicidal effect grade, A: Echinochloa oryzacola Vasing.” value in data set [6] is given as 5 (Herbicidal ratio of 90% or more (almost completely withered)). Besides, in the data set with rice, the “b (directly sowed rice plant) effect on crop grade” value was 5 (Herbicidal ratio of 90% or more (almost completely withered)). In addition, the “R: Veronica persica, herbicidal effect grade” value (“R: Veronica persica” for short) in the data set on Veronica persica was 4 (Herbicidal ratio of 70% or higher and lower than 90%). Moreover, in the data set on Abutilon theophrasti, the “M (Abutilon theophrasti) herbicidal effect grade” value was 4 (Herbicidal ratio of 70% or higher and lower than 90%). Besides, the “herbicidal effect on E, grade 0-5” value in the data set on Cyperus difformis is 5 (Herbicidal ratio of 90% or more (almost completely withered)). Also, the “e (wheat) effect on crop grade” value with wheat is 4 (Herbicidal ratio of 70% or higher and lower than 90%). For the same molecule, in the data set on Galium spurium, the “Q: Galium spurium, herbicidal effect grade” value (from here on “Q: Galium spurium”) is 0 (Herbicidal ratio of 5% or lower (almost no effect)). Also, the “L: Apera spica-venti, herbicidal effect grade” value (“L: Apera spica-venti” below) in the data set on Apera spica-venti is recorded as 5 (Herbicidal ratio of 90% or more (almost completely withered)). Moreover, the “c (corn) effect on crop grade” value in the data set with corn is 4 (Herbicidal ratio of 70% or higher and lower than 90%). Also, the “F (Digitaria ciliaris) herbicidal effect grade” value in the data set on Digitaria ciliaris [7] is 5 (Herbicidal ratio of 90% or more (almost completely withered)). In the data set on Lolium multiflorum Lam., the “K (Lolium multiflorum Lam.) herbicidal effect grade” value is listed as 5 (Herbicidal ratio of 90% or more (almost completely withered)). Further, the “G: Setaria viridis, herbicidal effect grade” value (from here on “G: Setaria viridis”) in the data set with Setaria viridis is given as 5 (Herbicidal ratio of 90% or more (almost completely withered)).

`CON=CCC1CC(O)=C(c2c(C)cc(C)cc2C)C1=O` (stereo not drawn) [1-050]: the “f: beet, effect on crop grade” value with beet [1] is given as 0 (Herbicidal ratio of 5% or lower (almost no effect)). The “f (beet) effect on crop grade” value with beet [2] is reported as 0 (Herbicidal ratio of 5% or lower (almost no effect)). For the same molecule, in [3], the “effect on crop b” value is reported as 5 (Herbicidal ratio of 90% or more (almost completely withered)). Moreover, in data set [4], the “H (Echinochloa crus-galli var. crus-galli) herbicidal effect grade” value was 4 (Herbicidal ratio of 70% or higher and lower than 90%). Moreover, the “J: Alopecurus myosuroides” value with Alopecurus myosuroides is 4 (Herbicidal ratio of 70% or higher and lower than 90%). The “F: Digitaria ciliaris” value in the data set with Digitaria ciliaris [5] is 3 (Herbicidal ratio of 40% or higher and lower than 70%). Further, the “Herbicidal effect grade, A: Echinochloa oryzacola Vasing.” value in [6] is 3 (Herbicidal ratio of 40% or higher and lower than 70%). Besides, the “b (directly sowed rice plant) effect on crop grade” value with rice is given as 5 (Herbicidal ratio of 90% or more (almost completely withered)). Moreover, the “R: Veronica persica” value with Veronica persica is 0 (Herbicidal ratio of 5% or lower (almost no effect)). For the same molecule, in the data set with Abutilon theophrasti, the “M (Abutilon theophrasti) herbicidal effect grade” value is 1 (Herbicidal ratio of 5% or higher and lower than 20%). Besides, in the data set with Cyperus difformis, the “herbicidal effect on E, grade 0-5” value is on record as 5 (Herbicidal ratio of 90% or more (almost completely withered)). Moreover, the “e (wheat) effect on crop grade” value with wheat is 0 (Herbicidal ratio of 5% or lower (almost no effect)). Also, the “Q: Galium spurium” value with Galium spurium is recorded as 0 (Herbicidal ratio of 5% or lower (almost no effect)). Also, in the data set with Apera spica-venti, the “L: Apera spica-venti” value is 3 (Herbicidal ratio of 40% or higher and lower than 70%). In the data set on corn, the “c (corn) effect on crop grade” value is 0 (Herbicidal ratio of 5% or lower (almost no effect)). Also, the “F (Digitaria ciliaris) herbicidal effect grade” value in the data set on Digitaria ciliaris [7] was 5 (Herbicidal ratio of 90% or more (almost completely withered)). Further, the “K (Lolium multiflorum Lam.) herbicidal effect grade” value in the data set with Lolium multiflorum Lam. was 4 (Herbicidal ratio of 70% or higher and lower than 90%). Also, the “G: Setaria viridis” value with Setaria viridis is reported as 5 (Herbicidal ratio of 90% or more (almost completely withered)).

With `CON=C(CC1CC1)CC1CC(O)=C(c2c(C)cc(C)cc2C)C1=O` (stereo not drawn) [1-070], the “f: beet, effect on crop grade” value in the data set on beet [1] is 0 (Herbicidal ratio of 5% or lower (almost no effect)). Further, the “f (beet) effect on crop grade” value in the data set with beet [2] is listed as 0 (Herbicidal ratio of 5% or lower (almost no effect)). Moreover, the “effect on crop b” value in data set [3] is 5 (Herbicidal ratio of 90% or more (almost completely withered)). For the same molecule, the “H (Echinochloa crus-galli var. crus-galli) herbicidal effect grade” value in data set [4] was 4 (Herbicidal ratio of 70% or higher and lower than 90%). Also, the “J: Alopecurus myosuroides” value in the data set on Alopecurus myosuroides is given as 5 (Herbicidal ratio of 90% or more (almost completely withered)). Further, the “F: Digitaria ciliaris” value in the data set with Digitaria ciliaris [5] is 1 (Herbicidal ratio of 5% or higher and lower than 20%). For the same molecule, the “Herbicidal effect grade, A: Echinochloa oryzacola Vasing.” value in data set [6] is 4 (Herbicidal ratio of 70% or higher and lower than 90%). Further, the “b (directly sowed rice plant) effect on crop grade” value in the data set with rice is given as 5 (Herbicidal ratio of 90% or more (almost completely withered)). In addition, the “R: Veronica persica” value in the data set on Veronica persica was 2 (Herbicidal ratio of 20% or higher and lower than 40%). Moreover, the “M (Abutilon theophrasti) herbicidal effect grade” value in the data set on Abutilon theophrasti is listed as 0 (Herbicidal ratio of 5% or lower (almost no effect)). Moreover, the “herbicidal effect on E, grade 0-5” value in the data set with Cyperus difformis was 4 (Herbicidal ratio of 70% or higher and lower than 90%). The “e (wheat) effect on crop grade” value with wheat is recorded as 0 (Herbicidal ratio of 5% or lower (almost no effect)). For the same molecule, the “Q: Galium spurium” value in the data set with Galium spurium was 2 (Herbicidal ratio of 20% or higher and lower than 40%). In addition, the “L: Apera spica-venti” value in the data set on Apera spica-venti is 4 (Herbicidal ratio of 70% or higher and lower than 90%). For the same molecule, the “c (corn) effect on crop grade” value in the data set on corn was 1 (Herbicidal ratio of 5% or higher and lower than 20%). Moreover, in the data set on Digitaria ciliaris [7], the “F (Digitaria ciliaris) herbicidal effect grade” value was 4 (Herbicidal ratio of 70% or higher and lower than 90%). The “K (Lolium multiflorum Lam.) herbicidal effect grade” value in the data set on Lolium multiflorum Lam. was 5 (Herbicidal ratio of 90% or more (almost completely withered)). Further, in the data set on Setaria viridis, the “G: Setaria viridis” value is given as 5 (Herbicidal ratio of 90% or more (almost completely withered)).
